Key:
[1] = Cytotoxicity, HepG2 cells, Resazurin assay; type: cell-based; details: human
HBV = experiment: anti HBV activity, HepG2.117 inducibly HBV producing cell line (Tet-off), intracellular HBV DNA by realtime PCR; type: cell-based; details: Hepatitis B virus, 72 h, HepG2.117 cells, 3 days of treatment

Structure (SMILES) | CC50 at 4 days [1] [µM] | EC50 (HBV) [nM]
Cn1cc(S(=O)(=O)NC2(C)CC(F)(F)C2)c(F)c1C(=O)Nc1ccnc(Br)c1 [Compound 117, N-(2-bromo-4-pyridyl)-4-[(3,3-difluoro-1-methyl-cyclobutyl)sulfamoyl]-3-fluoro-1-methyl-pyrrole-2-carboxamide] | > 25 | 10
Cn1cc(S(=O)(=O)NC2(C(F)(F)F)CCC2)c(F)c1C(=O)Nc1ccnc(C(F)F)c1 [Compound 119, N-[2-(difluoromethyl)-4-pyridyl]-3-fluoro-1-methyl-4-[[1-(trifluoromethyl)cyclobutyl]sulfamoyl]pyrrole-2-carboxamide] | > 25 | 5
Cn1cc(S(=O)(=O)NC2(C(F)(F)F)CCC2)c(F)c1C(=O)Nc1ccnc(Cl)c1F [Compound 120, N-(2-chloro-3-fluoro-4-pyridyl)-3-fluoro-1-methyl-4-[[1-(trifluoromethyl)cyclobutyl]sulfamoyl]pyrrole-2-carboxamide] | > 25 | 5
Cn1cc(S(=O)(=O)NC2(C(F)(F)F)CCC2)c(F)c1C(=O)Nc1cc(Cl)nc(C#N)c1 [Compound 121, N-(2-chloro-6-cyano-4-pyridyl)-3-fluoro-1-methyl-4-[[1-(trifluoromethyl)cyclobutyl]sulfamoyl]pyrrole-2-carboxamide] | > 25 | 40
Cn1cc(S(=O)(=O)NC2(C(F)(F)F)CCC2)c(F)c1C(=O)Nc1ccnc(Cl)c1 [Compound 122, N-(2-chloro-4-pyridyl)-3-fluoro-1-methyl-4-[[1-(trifluoromethyl)cyclobutyl]sulfamoyl]pyrrole-2-carboxamide] | > 25 | 10
Cn1cc(S(=O)(=O)NC2(C(F)(F)F)CCC2)c(F)c1C(=O)Nc1ccnc(C#N)c1 [Compound 123, N-(2-cyano-4-pyridyl)-3-fluoro-1-methyl-4-[[1-(trifluoromethyl)cyclobutyl]sulfamoyl]pyrrole-2-carboxamide] | > 25 | 10
Cn1cc(S(=O)(=O)NC2CCC2(F)F)c(F)c1C(=O)Nc1ccnc(C(F)F)c1 (stereo not shown) [Compound 127, 4-[(2,2-difluorocyclobutyl)sulfamoyl]-N-[2-(difluoromethyl)-4-pyridyl]-3-fluoro-1-methyl-pyrrole-2-carboxamide] | > 25 | 50
Cn1cc(S(=O)(=O)NC2(CF)CCC2)c(F)c1C(=O)Nc1ccnc(C(F)F)c1 [Compound 128, N-[2-(difluoromethyl)-4-pyridyl]-3-fluoro-4-[[1-(fluoromethyl)cyclobutyl]sulfamoyl]-1-methyl-pyrrole-2-carboxamide] | > 25 | 40
Cc1cc(NC(=O)c2c(F)c(S(=O)(=O)NC3(C)CC(F)(F)C3)cn2C)cc(Cl)n1 [Compound 130, N-(2-chloro-6-methyl-4-pyridyl)-4-[(3,3-difluoro-1-methyl-cyclobutyl)sulfamoyl]-3-fluoro-1-methyl-pyrrole-2-carboxamide] | > 25 | 60
Cn1cc(S(=O)(=O)NC2(C)CC(F)(F)C2)c(F)c1C(=O)Nc1ccnc(Br)c1F [Compound 131, N-(2-bromo-3-fluoro-4-pyridyl)-4-[(3,3-difluoro-1-methyl-cyclobutyl)sulfamoyl]-3-fluoro-1-methyl-pyrrole-2-carboxamide] | > 25 | 20
Cn1cc(S(=O)(=O)NC2(C)CC(F)(F)C2)c(F)c1C(=O)Nc1ccnc(F)c1 [Compound 133, 4-[(3,3-difluoro-1-methyl-cyclobutyl)sulfamoyl]-3-fluoro-N-(2-fluoro-4-pyridyl)-1-methyl-pyrrole-2-carboxamide] | > 25 | 50
Cn1cc(S(=O)(=O)NC2(C)CC(F)(F)C2)c(F)c1C(=O)Nc1cc(Br)nc(Br)c1 [Compound 135, N-(2,6-dibromo-4-pyridyl)-4-[(3,3-difluoro-1-methyl-cyclobutyl)sulfamoyl]-3-fluoro-1-methyl-pyrrole-2-carboxamide] | 13 | 180
C[C@@H](NS(=O)(=O)c1cn(C)c(C(=O)Nc2ccnc(F)c2F)c1Cl)C(F)(F)F [Compound 138, 3-chloro-N-(2,3-difluoro-4-pyridyl)-1-methyl-4-[[(1R)-2,2,2-trifluoro-1-methyl-ethyl]sulfamoyl]pyrrole-2-carboxamide] | > 25 | 90
C[C@@H](NS(=O)(=O)c1cn(C)c(C(=O)Nc2cc(F)ncc2F)c1Cl)C(F)(F)F [Compound 140, 3-chloro-N-(2,5-difluoro-4-pyridyl)-1-methyl-4-[[(1R)-2,2,2-trifluoro-1-methyl-ethyl]sulfamoyl]pyrrole-2-carboxamide] | > 25 | 200
Cc1cc(NC(=O)c2c(Cl)c(S(=O)(=O)N[C@H](C)C(F)(F)F)cn2C)cc(Cl)n1 [Compound 141, 3-chloro-N-(2-chloro-6-methyl-4-pyridyl)-1-methyl-4-[[(1R)-2,2,2-trifluoro-1-methyl-ethyl]sulfamoyl]pyrrole-2-carboxamide] | > 25 | 40
C[C@@H](NS(=O)(=O)c1cn(C)c(C(=O)Nc2ccnc(C(F)F)c2F)c1Cl)C(F)(F)F [Compound 142, 3-chloro-N-[2-(difluoromethyl)-3-fluoro-4-pyridyl]-1-methyl-4-[[(1R)-2,2,2-trifluoro-1-methyl-ethyl]sulfamoyl]pyrrole-2-carboxamide] | > 25 | 20
Cc1cc(NC(=O)c2c(Cl)c(S(=O)(=O)N[C@H](C)C(F)(F)F)cn2C)cc(C)n1 [Compound 144, 3-chloro-N-(2,6-dimethyl-4-pyridyl)-1-methyl-4-[[(1R)-2,2,2-trifluoro-1-methyl-ethyl]sulfamoyl]pyrrole-2-carboxamide] | > 25 | 300
C[C@@H](NS(=O)(=O)c1cn(C)c(C(=O)Nc2ccnc(C(F)F)c2F)c1Cl)C(C)(F)F [Compound 147, 3-chloro-N-[2-(difluoromethyl)-3-fluoro-4-pyridyl]-4-[[(1R)-2,2-difluoro-1-methyl-propyl]sulfamoyl]-1-methyl-pyrrole-2-carboxamide] | > 25 | 20
C[C@@H](NS(=O)(=O)c1cn(C)c(C(=O)Nc2ccnc(Br)c2F)c1Cl)C(C)(F)F [Compound 148, N-(2-bromo-3-fluoro-4-pyridyl)-3-chloro-4-[[(1R)-2,2-difluoro-1-methyl-propyl]sulfamoyl]-1-methyl-pyrrole-2-carboxamide] | > 25 | 20
Cc1cc(NC(=O)c2c(Cl)c(S(=O)(=O)N[C@H](C)C(C)(F)F)cn2C)cc(Cl)n1 [Compound 149, 3-chloro-N-(2-chloro-6-methyl-4-pyridyl)-4-[[(1R)-2,2-difluoro-1-methyl-propyl]sulfamoyl]-1-methyl-pyrrole-2-carboxamide] | > 25 | 60
C[C@@H](NS(=O)(=O)c1cn(C)c(C(=O)Nc2ccnc(C(F)(F)F)c2)c1Cl)C(C)(F)F [Compound 150, 3-chloro-4-[[(1R)-2,2-difluoro-1-methyl-propyl]sulfamoyl]-1-methyl-N-[2-(trifluoromethyl)-4-pyridyl]pyrrole-2-carboxamide] | > 25 | 90
C[C@@H](NS(=O)(=O)c1cn(C)c(C(=O)Nc2ccnc(C#N)c2F)c1Cl)C(C)(F)F [Compound 151, 3-chloro-N-(2-cyano-3-fluoro-4-pyridyl)-4-[[(1R)-2,2-difluoro-1-methyl-propyl]sulfamoyl]-1-methyl-pyrrole-2-carboxamide] | > 25 | 30
C[C@@H](NS(=O)(=O)c1cn(C)c(C(=O)Nc2ccnc(Br)c2F)c1F)C(F)(F)F [Compound 153, N-(2-bromo-3-fluoro-4-pyridyl)-3-fluoro-1-methyl-4-[[(1R)-2,2,2-trifluoro-1-methyl-ethyl]sulfamoyl]pyrrole-2-carboxamide] | > 25 | 20
C[C@@H](NS(=O)(=O)c1cn(C)c(C(=O)Nc2ccnc(C#N)c2F)c1F)C(F)(F)F [Compound 155, N-(2-cyano-3-fluoro-4-pyridyl)-3-fluoro-1-methyl-4-[[(1R)-2,2,2-trifluoro-1-methyl-ethyl]sulfamoyl]pyrrole-2-carboxamide] | > 25 | 20
C[C@@H](NS(=O)(=O)c1cn(C)c(C(=O)Nc2ccc(F)c(C#N)n2)c1Cl)C(F)(F)F [Compound 156, 3-chloro-N-(6-cyano-5-fluoro-2-pyridyl)-1-methyl-4-[[(1R)-2,2,2-trifluoro-1-methyl-ethyl]sulfamoyl]pyrrole-2-carboxamide] | > 25 | 140
Cc1cc(NC(=O)c2c(F)c(S(=O)(=O)N[C@H](C)C(C)(F)F)cn2C)cc(Br)n1 [Compound 157, N-(2-bromo-6-methyl-4-pyridyl)-4-[[(1R)-2,2-difluoro-1-methyl-propyl]sulfamoyl]-3-fluoro-1-methyl-pyrrole-2-carboxamide] | > 25 | 90
Cn1cc(S(=O)(=O)NC2(C)CC(F)(F)C2)c(Cl)c1C(=O)Nc1ccnc(Br)c1F [Compound 161, N-(2-bromo-3-fluoro-4-pyridyl)-3-chloro-4-[(3,3-difluoro-1-methyl-cyclobutyl)sulfamoyl]-1-methyl-pyrrole-2-carboxamide] | > 25 | 10
Cc1cc(NC(=O)c2c(Cl)c(S(=O)(=O)NC3(C)CC(F)(F)C3)cn2C)cc(F)n1 [Compound 163, 3-chloro-4-[(3,3-difluoro-1-methyl-cyclobutyl)sulfamoyl]-N-(2-fluoro-6-methyl-4-pyridyl)-1-methyl-pyrrole-2-carboxamide] | > 25 | 20
Cc1cc(NC(=O)c2c(F)c(S(=O)(=O)NC3(C(F)(F)F)CCC3)cn2C)cc(Br)n1 [Compound 164, N-(2-bromo-6-methyl-4-pyridyl)-3-fluoro-1-methyl-4-[[1-(trifluoromethyl)cyclobutyl]sulfamoyl]pyrrole-2-carboxamide] | > 25 | 40

— patent US11078193B2 (priority 2014, dated 2021)
